“And” between values parts separate entries of the source, which are not always exact repeats. Equal entries are not always repeated. Where two headings read alike, the source gives them in different places. Marks after values point to notes of the source that are not given here.
Legend:
[1] = target: T1, Angiotensin-converting enzymes (ACE) from porcine kidneys (EC 3.4.15.1) (Sus scrofa, UniProt F1RRW5); assay: biochemical; settings: for ACE inhibitory activity lower than that of reduced glutathione (GSH): ratio to the IC50 of GSH; for lower IC50 in relation to the respective aglycone / higher value of IC50 as compared to the IC50 of the respective aglycon: ACE inhibition; for lower IC50 in relation to the respective aglycone: glycoside vs aglycon; for higher value of IC50 as compared to the IC50 of the respective aglycon: glucoside vs aglycon
T1 construct: Angiotensin-converting enzymes (ACE) from porcine kidneys (EC 3.4.15.1) were purchased from Sigma-Aldrich; purchased Sigma-Aldrich (St. Louis, MO, USA); host or cells: porcine kidneys (tissue-derived enzyme)
T1 sequence (F1RRW5 34-1309): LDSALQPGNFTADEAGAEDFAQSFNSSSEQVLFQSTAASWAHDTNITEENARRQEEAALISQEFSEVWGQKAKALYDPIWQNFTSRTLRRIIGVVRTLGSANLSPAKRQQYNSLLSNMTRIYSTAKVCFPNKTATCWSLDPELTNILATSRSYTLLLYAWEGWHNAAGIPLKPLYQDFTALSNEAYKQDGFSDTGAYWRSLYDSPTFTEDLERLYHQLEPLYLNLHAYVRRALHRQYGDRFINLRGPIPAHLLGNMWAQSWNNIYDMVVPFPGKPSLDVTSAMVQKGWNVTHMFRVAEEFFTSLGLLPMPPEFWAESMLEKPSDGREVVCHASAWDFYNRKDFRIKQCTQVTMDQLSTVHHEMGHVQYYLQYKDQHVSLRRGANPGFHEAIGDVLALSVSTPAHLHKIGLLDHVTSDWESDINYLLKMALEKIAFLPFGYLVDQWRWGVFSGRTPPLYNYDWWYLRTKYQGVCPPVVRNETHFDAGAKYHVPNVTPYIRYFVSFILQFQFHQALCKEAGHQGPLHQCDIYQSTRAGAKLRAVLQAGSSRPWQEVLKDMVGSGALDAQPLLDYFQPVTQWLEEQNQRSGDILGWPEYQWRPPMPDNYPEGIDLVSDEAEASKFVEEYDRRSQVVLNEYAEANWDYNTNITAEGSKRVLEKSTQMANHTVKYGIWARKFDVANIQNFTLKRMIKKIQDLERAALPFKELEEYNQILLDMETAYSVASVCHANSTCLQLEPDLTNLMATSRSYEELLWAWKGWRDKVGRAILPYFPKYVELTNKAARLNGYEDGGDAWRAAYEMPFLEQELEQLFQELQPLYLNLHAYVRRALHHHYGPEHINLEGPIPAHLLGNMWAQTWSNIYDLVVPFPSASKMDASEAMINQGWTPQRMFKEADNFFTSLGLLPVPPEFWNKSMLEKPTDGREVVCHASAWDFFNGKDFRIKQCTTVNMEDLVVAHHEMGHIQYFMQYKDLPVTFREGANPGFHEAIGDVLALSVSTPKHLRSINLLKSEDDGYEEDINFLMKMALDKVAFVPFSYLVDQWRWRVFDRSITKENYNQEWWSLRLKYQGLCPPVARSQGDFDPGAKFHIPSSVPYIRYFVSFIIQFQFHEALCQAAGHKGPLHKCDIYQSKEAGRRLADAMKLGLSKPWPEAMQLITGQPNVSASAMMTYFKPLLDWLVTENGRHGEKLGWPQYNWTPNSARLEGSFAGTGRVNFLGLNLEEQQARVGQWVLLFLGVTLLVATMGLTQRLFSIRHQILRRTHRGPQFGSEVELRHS
Experimental: Angiotensin-converting enzymes (ACE) from porcine kidneys (EC 3.4.15.1) were purchased from Sigma-Aldrich (St. Louis, MO, USA). A three-tris-base buffer was as follows: buffer A: 300 mM Tris-base buffer (pH 8.3) with 2 mM ZnCl2; buffer B: 150 mM Tris-base buffer (pH 8,3); and buffer C: 150 mM Tris-base buffer (pH 8.3) with […] NaCl. The substrate o-aminobenzoylglycyl-p-nitorphenylalanylproline (Abz-Gly-Phe(NO2)-Pro) was obtained from BACHEM (Bubendorf, Switzerland). Standards of phenolic acids, flavonoids, glucosides, and low-molecular-weight phenolic metabolites were obtained from Sigma-Aldrich (St. Louis, MO, USA) and Extrasynthese (Genay, France). Water was purified using the Mili-Q system (Milipore, Bedford, MA, USA).
Stock solutions at 1 mM of selected phenolic acids, flavonoids, their O-glucosides, and low-molecular-weight phenolic metabolites were prepared in 80% methanol. The concentration was confirmed by a UV measurement according to Franke et al.. A wide range of concentrations of each compound was prepared by serial dilutions in deionized water to determine the IC50 value. […] The ACE inhibitory activity was obtained from three repetitions (n = 3) for each concentration.
Angiotensin-converting enzyme (ACE) activity inhibitory assay was performed according to the method of Sentandreu and Toldra. The procedure was based on the hydrolysis of the internally quenched substrate o-aminobenzoylglycyl-p-nitorphenylalanylproline (Abz-Gly-Phe(NO2)-Pro) by the reaction of ACE. The fluorescence generated by the liberation of the product (the o-aminobenzoylglycine group) was read in a microplate multiscan fluorometer. The production of fluorescence was inhibited by the presence of functional compounds with an ACE inhibitory effect. The fluorescence was measured immediately after mixing (0 min) and then after 30 min of reaction at an excitation of 365 nm and an emission of 405 nm. To calculate the % of inhibition of ACE, the following equation was used:Relative ACE activity% = 100 − (ΔRFUsample × 100/ΔRFUnegative control), where ΔRFU = RFU at time 30 – RFU at time 0.

[2] = First anodic oxidation potential by differential pulse voltammetry (DPV); assay type: physicochemical; settings: for Anodic Peak Potential Epa: DPV, first anodic peak, 0.25 mM standard in 0.1 M Britton-Robinson buffer pH 6.0 in 80% methanol, glassy carbon vs Ag/AgCl, 100 mV/s; for antioxidant power class based on the first oxidation potential: classes according to Blasco et al. [47]
Experimental: A potentiostat/galvanostat G 750 (Gamry Instruments, Warminster, USA) was used for voltametric experiments. A conventional three-electrode system: a 3 mm diameter glassy carbon working electrode (BAS MF-2012), an Ag/AgCl electrode as a reference electrode, and a platinum as counter electrode, was used in the study. Differential pulse voltametric experiments were performed with phenolic acids and flavonoids prepared in a 1:1 (v/v) mixture of 500 µM standard solution and […] Britton-Robinson (B-R) buffer (pH 6.0 in 80% methanol), which also served as a supporting electrolyte. The voltametric experiments were performed at room temperature using an electrochemical cell (volume 200 µL), to which the analyzed standard solution, mixed previously with the buffer solution, was introduced. The differential pulse voltammograms were acquired in the range of −100 to 1300 mV at a scanning rate of 100 mV/s. Before use, the surface of the glassy carbon electrode was carefully polished with 0.05 µm alumina paste, ultrasonically rinsed in deionized water, and then washed with methanol. This procedure was repeated after each cycle. For test purposes, the first anodic oxidation potential was recorded (mV).

[3] = porcine kidney ACE, substrate Abz-Gly-Phe(NO2)-Pro, fluorescence after 30 min, mean ± SD, read-out: IC50 Value (ACE inhibitory activity)
[4] = low-molecular-weight phenolic metabolites
[5] = IC50 Value (ACE inhibitory activity), porcine kidney ACE, substrate Abz-Gly-Phe(NO2)-Pro, fluorescence after 30 min, mean ± SD

SMILES | IC50 [1, 3] | Anodic Peak Potential Epa [2] | also measured
O=C(O)CCc1ccccc1O [2-HPPA, 3-(2-hydroxyphenyl)propionic acid] | 0.9329 ± 0.00642 mM | 781 ± 9 ^d mV | antioxidant power class based on the first oxidation potential [2, 4]: moderate antioxidant power (moderate antioxidant power (0.3 V < Epa < 0.8 V))
O=C(O)CCc1ccc(O)c(O)c1 [3,4-DHPPA, 3-(3,4-dihydroxyphenyl)propionic acid] | 0.612 ± 0.00651 mM | 218 ± 3 ^h mV | 
O=C(O)CCc1ccc(O)cc1O [3-2,4-DHPPA, 3-(2,4-dihydroxyphenyl)propionic acid] | 0.745 ± 0.00833 mM | 659 ± 8 ^e mV | antioxidant power class based on the first oxidation potential [2, 4]: moderate antioxidant power (moderate antioxidant power (0.3 V < Epa < 0.8 V))
O=C(O)Cc1cccc(O)c1 [3-HPAA, 3-hydroxyphenylacetic acid] | 0.679 ± 0.0077 mM | 883 ± 11 ^b mV | antioxidant power class based on the first oxidation potential [2, 4]: weak antioxidant power (weak antioxidant power (Epa ˃ 0.8 V))
O=C(O)c1ccc(O)cc1 [4-HBA, 4-hydroxybenzoic acid] | 0.788 ± 0.0111 mM | 961 ± 11 ^a mV | 
O=C(O)Cc1ccc(O)cc1 [4-HPAA, 4-hydroxyphenylacetic acid] | 1.391 ± 0.0102 mM | 815 ± 12 ^c mV | antioxidant power class based on the first oxidation potential [2, 4]: weak antioxidant power (weak antioxidant power (Epa ˃ 0.8 V))
O=C(O)CCc1ccc(O)cc1 [4-HPPA, 3-(4-hydroxyphenyl)propionic acid] | 0.49 mM and 0.491 mM | 664 ± 8 ^e mV | ACE inhibitory activity lower than that of reduced glutathione (GSH) [1]: ~12 fold; antioxidant power class based on the first oxidation potential [2, 4]: moderate antioxidant power (moderate antioxidant power (0.3 V < Epa < 0.8 V))
O=c1cc(-c2ccc(O)cc2)oc2cc(OC3O[C@H](CO)[C@@H](O)[C@H](O)[C@H]3O)cc(O)c12 (stereo partly drawn) [Apigenin-7-O-glucoside] | 0.218 ± 0.00253 mM | 841 ± 6 ^ab mV | lower IC50 in relation to the respective aglycone [1]: 35%
O=C(/C=C/c1ccc(O)c(O)c1)O[C@@H]1C[C@](O)(C(=O)O)C[C@@H](O)[C@H]1O [Chlorogenic acid] | 0.134 mM | 443 ± 9 ^d mV | ACE inhibitory activity lower than that of reduced glutathione (GSH) [1]: threefold
OCC1OC(Oc2cc3c(O)cc(O)cc3[o+]c2-c2ccc(O)c(O)c2)C(O)C(O)C1O (stereo not drawn) [Cyanidin-3-O-glucoside] | 0.185 ± 0.00258 mM | 373 ± 4 ^g mV | higher value of IC50 as compared to the IC50 of the respective aglycon [1]: 5%
Oc1cc(O)c2cc(O)c(-c3ccc(O)c(O)c3)[o+]c2c1 [Cyanidin] | 0.176 ± 0.00238 mM | 295 ± 3 ^h mV | antioxidant power class based on the first oxidation potential ([2]; flavonoids and glucosides): high antioxidant power (high antioxidant power (Ep < 0.3 V))
OCC1OC(Oc2cc3c(O)cc(O)cc3[o+]c2-c2cc(O)c(O)c(O)c2)C(O)C(O)C1O (stereo not drawn) [Delphinidin-3-O-glucoside] | 0.2088 ± 0.00133 mM | 453 ± 4 ^e mV | lower IC50 in relation to the respective aglycone [1]: 16%
Oc1cc(O)c2cc(O)c(-c3cc(O)c(O)c(O)c3)[o+]c2c1 [Delphinidin] |  | 259 ± 3 ^i mV | IC50 [1, 5]: 0.2477 ± 0.00185 mM
COc1cc(/C=C/C(=O)O)ccc1O [Ferulic acid] | 0.98 ± 0.0136 mM | 611 ± 6 ^c mV | IC50 ([1]; values of this study restated in mM in the discussion, read-out: IC50 (ACE inhibition)): 0.98 mM
N[C@@H](CCC(=O)N[C@@H](CS)C(=O)NCC(=O)O)C(=O)O [GSH, reduced glutathione, reference compound] | 0.0417 mM |  | 
O=C(O)c1cc(O)ccc1O [Gentisic acid] |  | 622 ± 8 ^c mV | IC50 ([1]; IC50 (ACE inhibition), values of this study restated in mM in the discussion): 0.834 mM; IC50 [1, 5]: 0.834 ± 0.00926 mM
COc1cc(CC(=O)O)ccc1O [HVA, 2-(3-methoxy-4-hydroxyphenyl)acetic acid] |  | 643 ± 5 ^e mV | IC50 [1, 5]: 1.46 mM; ACE inhibitory activity lower than that of reduced glutathione (GSH) [1]: about 35 fold; antioxidant power class based on the first oxidation potential [2, 4]: moderate antioxidant power (moderate antioxidant power (0.3 V < Epa < 0.8 V))
O=c1c(OC2OC(CO)C(O)C(O)C2O)c(-c2ccc(O)c(O)c2)oc2cc(O)cc(O)c12 [Hyperoside, quercetin-3-O-D-galactoside] |  | 307 ± 3 ^h mV | higher value of IC50 as compared to the IC50 of the respective aglycon [1]: 30%; IC50 [1, 5]: 0.1572 ± 0.00145 mM
O=c1c(OC2OC(CO)C(O)C(O)C2O)c(-c2ccc(O)cc2)oc2cc(O)cc(O)c12 (stereo not drawn) [Kaempferol-3-O-glucoside] |  | 359 ± 3 ^fg mV | lower IC50 in relation to the respective aglycone [1]: 16%; IC50 [1, 5]: 0.11 ± 0.00356 mM
O=c1c(O)c(-c2ccc(O)cc2)oc2cc(OC3OC(CO)C(O)C(O)C3O)cc(O)c12 (stereo not drawn) [Kaempferol-7-O-glucoside] | 0.0977 ± 0.00208 mM | 419 ± 6 ^f mV | lower IC50 in relation to the respective aglycone [1]: 26%
O=c1cc(-c2ccc(OC3OC(CO)C(O)C(O)C3O)c(O)c2)oc2cc(O)cc(O)c12 (stereo not drawn) [Luteolin-4′-O-glucoside] | 0.0889 ± 0.00168 mM | 828 ± 5 ^b mV | higher value of IC50 as compared to the IC50 of the respective aglycon [1]: 15%
O=c1cc(-c2ccc(O)c(O)c2)oc2cc(OC3OC(CO)C(O)C(O)C3O)cc(O)c12 (stereo not drawn) [Luteolin-7-O-glucoside] |  | 445 ± 3 ^e mV | lower IC50 in relation to the respective aglycone [1]: 20%; IC50 [1, 5]: 0.0615 ± 0.00162 mM
